Results published in patent US20210186972A1, “FORMULATIONS AND METHODS FOR THE PREVENTION AND TREATMENT OF TUMOR METASTASIS AND TUMORIGENESIS” (THE UNITED STATES OF AMERICA, AS REPRESENTED BY THE …, priority 2018, published 2021).

Key:
[1] = test system: eEF1A; assay: Cellular thermal shift assay (CETSA); assay type: binding; details: PC3M cell lysate
Text: DMSO is the top panel and metarrestin is the bottom panel.

[2] = test system: PANC1 cells; assay: Cell growth, PANC1; assay type: cell-based, human; details: 0.6 μM, after 24 hours of treatment
Text: FIG. 63 is a graph showing the drug response of PANC1 cells following metarrestin treatment. […] Mean cell viability values are plotted with standard error of the mean (SEM) from at least 2 independent experiments done in triplicate.

[3] = Repeat dose plasma pharmacokinetics, IP; assay type: in vivo, SCID Beige mice; details: for concentration at 24 h: SCID Beige, mouse, plasma, intraperitoneal
Method: (§1) Metarrestin was administered to female BALB/c mice, n=3 in the single dose and the repeat doses were administered to SCID-beige mice, n=3 per time point. The repeat dose study mice were given daily intraperitoneal injections for 4 weeks, with concentration measured 24 h after the last dose. Metarrestin was formulated in 5% NMP+20% PEG400+75% (10% […] in water).
BALB/c mice, 17-19 g, female, n=66, were purchased and had free access to food and water. They were dosed with metarrestin at 5 or 25 mg/kg (10 ml/kg) in 5% NMP [NMP (Sigma-Aldrich cat #270458), 20% PEG400 (Sigma-Aldrich cat #202398), and 75% 10% HPBCD (Sigma-Aldrich cat #H107)] via lower left abdominal quadrant injection (n=33 each dose). The animals were anesthetized with isoflurane and restrained manually at the designated time points. Approximately 120 μL of blood were taken from the animals into K2EDTA tubes via retro-orbital puncture. Blood samples were placed on ice and centrifuged (2,000 g, 5 min under 4° C.) to obtain plasma samples within 15 minutes. An aliquot of 20 μL plasma sample was protein-precipitated with 200 μL acetonitrile that contained 50 ng/mL IS (dexamethasone). The mixture was vortexed for 2 min, centrifuged at 14,000 rpm for 5 min, and an aliquot of 30 μL supernatant was diluted with 70 μL MeOH:H2O (1:1, v/v), then vortexed for 2 min. A 2 μL aliquot of supernatant was injected into UPLC-MS/MS. Analysis of samples was done with an LC-MS/MS-02 (API4000), Waters-BEH-C18 (2.1×50 mm, 1.7 μm) column, flow rate 0.6 mL/min, with a mobile phase consisting of solvent A (H2O— 0.025% FA-1 mM NH4OAc) and solvent B (MeOH— 0.025% FA-1 mM NH4OAc). The gradient was 10, 90, 90, 10% B at 0.30, 0.60, 1.20, 1.21, 1.80 (stop) min. Retention times for metarrestin and dexamethasone were 1.09 and 1.08 min, respectively. Calibration curves were established with known serially diluted concentrations of metarrestin before analysis. SCID Beige mice were purchased and dosed with metarrestin at 5 and 25 mg/kg, once daily at 24 hour intervals for 4 weeks as above. Twenty-four hours after the final dose, the concentrations of metarrestin in plasma were analyzed.

[4] = test system: PANC1 cells; assay: 24-well Transwell MATRIGEL invasion assay, PANC1; assay type: cell-based, human; details: 0.6 μM, within 24 hours
Method: FIG. 3 is a bar graph showing that metarrestin inhibits MATRIGEL gelatinous protein mixture (BD Biosciences, Franklin Lakes, N.J.) invasion at below micromolar concentrations (0.6 μM) within 24 hours of treatment (* p<0.05 and ** p<0.01 in comparison to DMSO [control]). The invasion (%) is on the y-axis and the metarrestin [microM] is on the x-axis. The cell line PC3M is shown in white bars and the cell line PANC1 (human pancreas) is shown in black bars.
24-well Transwell Permeable MATRIGEL gelatinous protein mixture Invasion assay: The effect of metarrestin on invasion activity of PANC1 and PC3M cells was measured using 24-well Transwell Permeable MATRIGEL gelatinous protein mixture Invasion Chambers with 8 μm pores (Corning, Cat #354480). Membranes were rehydrated with 500 μL of serum-free DMEM (Thermo Fisher, Cat #11965084) both inside the chamber and inside the well and incubated for two hours at 37° C., 5% CO2. Cells were detached, washed, resuspended in serum-free DMEM, counted, and diluted to a final concentration of 1×10^5 cells/mL in six separate 15 mL conical tubes. […] 750 μL of DMEM plus 10% FBS acting as a chemoattractant were placed in the basal wells. Plates were incubated at 37° C., 5% CO2 for 24 hours. […]

[5] = in vivo; set-up: species or system BALB/c mice; details: mouse
Method: as §1
BALB/c mice, 17-19 g, female, n=66, were purchased and had free access to food and water. They were dosed with metarrestin at 5 or 25 mg/kg (10 ml/kg) in 5% NMP [NMP (Sigma-Aldrich cat #270458), 20% PEG400 (Sigma-Aldrich cat #202398), and 75% 10% HPBCD (Sigma-Aldrich cat #H107)] via lower left abdominal quadrant injection (n=33 each dose). The animals were anesthetized with isoflurane and restrained manually at the designated time points. Approximately 120 μL of blood were taken from the animals into K2EDTA tubes via retro-orbital puncture. Blood samples were placed on ice and centrifuged (2,000 g, 5 min under 4° C.) to obtain plasma samples within 15 minutes. An aliquot of 20 μL plasma sample was protein-precipitated with 200 μL acetonitrile that contained 50 ng/mL IS (dexamethasone). […] Twenty-four hours after the final dose, the concentrations of metarrestin in plasma were analyzed.

[6] = test system: normal mouse hepatocytes; assay: Nucleolar volume by EM in normal liver tissue; assay type: in vivo; details: treated normal mouse hepatocytes
Method: FIGS. 49A-49C are graphs showing quantitative evaluation of the EM images of FIG. 48.
The nucleolar disruption was reversible within 48 hours upon withdrawal of metarrestin (FIG. 47). Similar disruptions were observed among other treated cell lines, including PANC1 and PC3M cells (FIG. 48), primary tumor, and liver metastatic tissues in the PANC1 xenograft model (FIG. 21, right panels). […] The segregation of the nucleolar compartments observed by EM is believed to correspond to the nucleolar capping structures detected by immunofluorescence of nucleolar proteins (FIGS. 21A-21C, 23, and 50). The coupling of nucleolar segregation with PNC loss was confirmed across several cell lines by immunolabeling with antibodies against the nucleolar Pol I transcription initiation factors, UBF (upstream binding transcription factor) (FIGS. 23 and 50), or Pol I polymerase, RPA194 (FIG. 51). Factors involved in ribosome maturation, such as fibrillarin or NOPP140 (FIGS. 51 and 52) were similarly reorganized. In contrast, UBF distribution was not changed when the normal human fibroblast GM02153 cell line was treated with metarrestin at the same concentration (FIG. 53).

[7] = 25 mg/kg IP once daily for 4 weeks, 24 h after the final dose

Question: Which “Aggregation temperature of eEF1A” value [1] does the source give for `N=c1c2c(-c3ccccc3)c(-c3ccccc3)n(Cc3ccccc3)c2ncn1[C@H]1CC[C@H](O)CC1` [metarrestin] here?
Answer: increase in the aggregation temperature of eEF1A

Question: What about the PANC1 cell growth [2] of the same compound?
Answer: did not affect PC3M or PANC1 cell growth

Question: What about the Plasma concentration [3, 7] of the same compound?
Answer: 1.46 µM

Question: What about the concentration at 24 h ([3]; 5 mg/kg IP once daily for 4 weeks, 24 h after the final dose) of the same compound?
Answer: 0.0484 µg/mL

Question: And the concentration at 24 h [3, 7]?
Answer: 0.692 µg/mL

Question: What about the Risk of accumulation ([3]; single and multiple daily IP dosing, 5 and 25 mg/kg) of the same compound?
Answer: predicted moderate risk of accumulation

Question: And the “Invasion of PANC1 cells” value [4]?
Answer: effectively blocked the invasion

Question: What about the half-life ([5]; female, BALB/c, ip, 25 mg/kg) of the same compound?
Answer: 4.6 to 5.5 h

Question: What about the Bioavailability [5] of the same compound?
Answer: high bioavailability

Question: What about the Nucleolar volume [6] of the same compound?
Answer: not changed
